Data: patent publication US20240277713A1 (Kadmon Corporation, LLC, priority 2022, published 2024)
Counter-ions that a name gives are not always drawn.

How the values were obtained:
patients with cGVHD = details: cited from earlier work
Solubility = assay type: physicochemical
Protocol: The tablet film consists of polyvinyl alcohol, polyethylene glycol, talc, titanium dioxide and yellow iron oxide. Each 200 mg tablet is a pale-yellow film-coated oblong tablet debossed with “KDM” on one side and “200” on the other side. Tablets are stored at room temperature, 20° C. to 25° C. (68° F. to 77° F.); excursions permitted from 15° C. and 30° C. (59° F. to 86° F.).

[1] = Toxicokinetics in pregnant Sprague-Dawley rats (Example 1); assay type: in vivo, rat; details: belumosudil 25 mg base/kg/day oral, GD 17
[2] = Toxicokinetics in pregnant New Zealand White rabbits (Example 2); assay type: in vivo, rabbit; details: GD 18
Protocol: The study was conducted in two phases: Phase A was a dose range finding tolerance study with non-pregnant rabbits, and Phase B was the pilot developmental toxicity study.
All fetuses were given the appropriate external examination.

[3] = Toxicokinetic evaluation in pregnant rats (Example 3); assay type: in vivo, rat
Text: Animals received in-life and postmorten evaluations.

[4] = Toxicokinetic evaluation in pregnant rabbits (Example 4); assay type: in vivo, rabbit
Protocol: The dose levels for the treated groups were 50, 125, 225, mg base/kg/day at a dose volume of 10 mL/kg. The control group received the vehicle in the same manner as the treated groups. […] Individual doses were based on the most recent body weights.
Observations of the animals included clinical signs, body weights, food consumption, and anatomical pathology including a uterine examination. […] All fetuses were given an external, visceral, and skeletal examination.

[5] = Toxicokinetic analysis in rat plasma (Example 5); assay type: in vivo
Protocol: TK animals were dosed for 70 and 14 days for the males and females, respectively. Dosing of TK males and females was initiated simultaneously, continuing to euthanasia. Refrigerated daily aliquots of dosing formulations were brought to room temperature while continuously stirring for at least 30 minutes prior to dosing.

[6] = belumosudil 50 mg base/kg/day oral
[7] = belumosudil 250 mg base/kg/day oral
[8] = GD 6, belumosudil 15 mg base/kg oral
[9] = GD 6, belumosudil 50 mg base/kg oral
[10] = GD 6, belumosudil 150 mg base/kg oral
[11] = GD 17, belumosudil 15 mg base/kg oral
[12] = GD 17, belumosudil 50 mg base/kg oral
[13] = GD 17, belumosudil 150 mg base/kg oral
[14] = GD 6, belumosudil 125 mg base/kg oral
[15] = GD 6, belumosudil 225 mg base/kg oral
[16] = GD 18, belumosudil 50 mg base/kg oral
[17] = GD 18, belumosudil 125 mg base/kg oral
[18] = GD 18, belumosudil 225 mg base/kg oral
[19] = Day 1, belumosudil 50 mg base/kg, F
[20] = Day 1, belumosudil 50 mg base/kg, M
[21] = Day 1, belumosudil 150 mg base/kg, F
[22] = Day 1, belumosudil 150 mg base/kg, M
[23] = Day 1, belumosudil 275 mg base/kg, F
[24] = Day 1, belumosudil 275 mg base/kg, M
[25] = Day 14, belumosudil 50 mg base/kg, F
[26] = Day 14, belumosudil 150 mg base/kg, F
[27] = Day 14, belumosudil 275 mg base/kg, F
[28] = Day 70, belumosudil 50 mg base/kg, M
[29] = Day 70, belumosudil 150 mg base/kg, M
[30] = Day 70, belumosudil 275 mg base/kg, M

For `C=CC(=O)N1CCC[C@@H](n2nc(-c3ccc(Oc4ccccc4)cc3)c3c(N)ncnc32)C1` [ibrutinib], the “discontinuation rate because of TEAEs” value (patients with cGVHD) is listed as 43%.
With `CC(C)NC(=O)COc1cccc(-c2nc(Nc3ccc4[nH]ncc4c3)c3ccccc3n2)c1` [Belumosudil mesylate, 2-{3-[4-(1H-indazol-5-ylamino)-2-quinazolinyl]phenoxy}-N-(propan-2-yl) acetamide methanesulfonate (1:1)] the “solubility in DMSO” value (Solubility) was “soluble in DMSO”, the “solubility in methanol and DMF” value (Solubility) was “slightly soluble in methanol and DMF” and the solubility in water (Solubility) was “practically insoluble in water”.
For `O=C(O)COc1cccc(-c2nc(Nc3ccc4[nH]ncc4c3)c3ccccc3n2)c1` [KD025m2], the “maternal AUC0-24” value [1] was 1.48 µg·h/mL, the “maternal Cmax” value [1] was 0.127 µg/mL and the “maternal AUC0-24” value [2, 6] was 2.99 µg·h/mL. The “maternal Cmax” value [2, 6] was 1.09 µg/mL, the “maternal AUC0-24” value [2, 7] was 19.7 µg·h/mL and the “maternal Cmax” value [2, 7] was 3.08 µg/mL. For the same molecule, the “Mean AUC0-24 in plasma of pregnant rats” value [3, 8] was 0.515 µg·h/mL, the “Mean Cmax in plasma of pregnant rats” value [3, 8] was 0.0762 µg/mL and the “Mean AUC0-24 in plasma of pregnant rats” value [3, 9] was 3.05 µg·h/mL. The “Mean Cmax in plasma of pregnant rats” value [3, 9] was 0.191 µg/mL, the “Mean AUC0-24 in plasma of pregnant rats” value [3, 10] was 10.5 µg·h/mL and the “Mean Cmax in plasma of pregnant rats” value [3, 10] was 0.519 µg/mL. The “Mean AUC0-24 in plasma of pregnant rats” value [3, 11] was 0.572 µg·h/mL, the “Mean Cmax in plasma of pregnant rats” value [3, 11] was 0.0556 µg/mL and the “Mean AUC0-24 in plasma of pregnant rats” value [3, 12] was 3.58 µg·h/mL. For the same molecule, the “Mean Cmax in plasma of pregnant rats” value [3, 12] was 0.35 µg/mL, the “Mean AUC0-24 in plasma of pregnant rats” value [3, 13] was 11.1 µg·h/mL and the “Mean Cmax in plasma of pregnant rats” value [3, 13] was 0.972 µg/mL. For the same molecule, the “accumulation after multiple dosing of belumosudil” value ([3]; pregnant rats) was “No apparent accumulation”, the “Mean AUC0-24 in plasma of pregnant rabbits” value [4, 9] was 4.18 µg·h/mL and the “Mean Cmax in plasma of pregnant rabbits” value [4, 9] was 1.17 µg/mL. The “Mean AUC0-24 in plasma of pregnant rabbits” value [4, 14] was 13.6 µg·h/mL, the “Mean Cmax in plasma of pregnant rabbits” value [4, 14] was 2.18 µg/mL and the “Mean AUC0-24 in plasma of pregnant rabbits” value [4, 15] was 42.4 µg·h/mL. For the same molecule, the “Mean Cmax in plasma of pregnant rabbits” value [4, 15] was 3.19 µg/mL, the “Mean AUC0-24 in plasma of pregnant rabbits” value [4, 16] was 2.47 µg·h/mL and the “Mean Cmax in plasma of pregnant rabbits” value [4, 16] was 1.12 µg/mL. The “Mean AUC0-24 in plasma of pregnant rabbits” value [4, 17] was 16.7 µg·h/mL, the “Mean Cmax in plasma of pregnant rabbits” value [4, 17] was 3.61 µg/mL and the “Mean AUC0-24 in plasma of pregnant rabbits” value [4, 18] was 41.5 µg·h/mL. The “Mean Cmax in plasma of pregnant rabbits” value [4, 18] was 4.62 µg/mL, the “accumulation after multiple dosing of belumosudil” value ([4]; pregnant rabbits) was “no apparent accumulation” and the AUC0-24 in rat plasma [5, 19] was 2.11 µg·h/mL. For the same molecule, the “Cmax in rat plasma” value [5, 19] was 0.135 µg/mL, the AUC0-24 in rat plasma [5, 20] was 5.44 µg·h/mL and the “Cmax in rat plasma” value [5, 20] was 0.501 µg/mL. For the same molecule, the AUC0-24 in rat plasma [5, 21] was 6.86 µg·h/mL, the “Cmax in rat plasma” value [5, 21] was 0.398 µg/mL and the AUC0-24 in rat plasma [5, 22] was 13.6 µg·h/mL. For the same molecule, the “Cmax in rat plasma” value [5, 22] was 0.686 µg/mL, the AUC0-24 in rat plasma [5, 23] was 11.5 µg·h/mL and the “Cmax in rat plasma” value [5, 23] was 0.925 µg/mL. The AUC0-24 in rat plasma [5, 24] was 21.5 µg·h/mL, the “Cmax in rat plasma” value [5, 24] was 1.68 µg/mL and the “AR (Accumulation Ratio) AUC0-24” value [5, 25] was 0.657. The AUC0-24 in rat plasma [5, 25] was 1.39 µg·h/mL, the “Cmax in rat plasma” value [5, 25] was 0.125 µg/mL and the “AR (Accumulation Ratio) AUC0-24” value [5, 26] was 1.04. The AUC0-24 in rat plasma [5, 26] was 7.11 µg·h/mL, the “Cmax in rat plasma” value [5, 26] was 0.523 µg/mL and the “AR (Accumulation Ratio) AUC0-24” value [5, 27] was 1.80. For the same molecule, the AUC0-24 in rat plasma [5, 27] was 20.7 µg·h/mL, the “Cmax in rat plasma” value [5, 27] was 1.48 µg/mL and the “AR (Accumulation Ratio) AUC0-24” value [5, 28] was 0.750. For the same molecule, the AUC0-24 in rat plasma [5, 28] was 4.08 µg·h/mL, the “Cmax in rat plasma” value [5, 28] was 0.41 µg/mL and the “AR (Accumulation Ratio) AUC0-24” value [5, 29] was 0.701. The AUC0-24 in rat plasma [5, 29] was 9.52 µg·h/mL, the “Cmax in rat plasma” value [5, 29] was 1.07 µg/mL and the “AR (Accumulation Ratio) AUC0-24” value [5, 30] was 1.35. The AUC0-24 in rat plasma [5, 30] was 28.9 µg·h/mL, the “Cmax in rat plasma” value [5, 30] was 1.9 µg/mL and the “accumulation after multiple doses of belumosudil” value ([5]; rats) was “less than 2 fold”.
